The values below come from EP1739169B1, “Clinical diagnostic reagent comprising glucose 6-phosphate dehydrogenase (G6PDH), method for stabilizing G6PDH, and use of a stabilizer for G6PDH” (SYSMEX CORPORATION, priority 2005, dated 2007).

The structures appear in SMILES notation.

One data set has as its system G6PDH. Nature of the data set: Residual activity of G6PDH in CK activity measurement reagent after heat loading at 37°C (NADPH formation, absorbance at 340 nm). The settings on record: heat loading at 37°C for 5 days; for G6PDH residual activity: relative to reagent without heat loading. The class given is biochemical. On the procedure: (§1) Aminoguanidine was added to the above composition to prepare three kinds of reagents different in the concentration of aminoguanidine. The concentrations of aminoguanidine in these reagents were 10 mM, 20 mM and 40 mM respectively. After these reagents were subjected to heat loading at 37°C for 5 days, the residual activity of G6PDH was measured and the residual amount of SH group in NAC was quantified.
The activity of G6PDH was measured in the following manner. First, a solution wherein 20 mM magnesium chloride, 0.6 mM NADP and 0.5 mM G6P were dissolved in a solution containing 0.1 M glycylglycine (pH 8.5) was prepared. When 300 µl of this solution was mixed with 1 µl of the first reagent, NADPH is formed by the activity of G6DPH. When NADPH is formed, the absorbance at a wavelength of 340 nm is increased, and thus this increase is measured to determine the activity of G6PDH.
(§2) In Table 1, the residual activity of G6PDH and the residual amount of SH group of NAC are expressed in percentage. These values are those relative to the activity of G6PDH and the amount of SH group of NAC in each reagent which without subjection to heat loading, was measured by the method described in Example 1. Table 1 […]

Data set [1] can be described thus: Residual amount of SH group of NAC in the reagent after heat loading at 37°C (quantification with DTNB, absorbance at 412 nm). The class given is physicochemical. The settings on record: heat loading at 37°C for 5 days; for SH group residual amount: relative to reagent without heat loading. On the procedure:
as §1
The quantification of SH group was carried out by using DTNB (5,5'-dithiobis(2-nitrobenzoic acid)). When DTNB is added to the reagent where NAC is present, disulfide linkages corresponding to the amount of SH groups in the NAC are cleaved to generate 5-mercapto-2-nitrobenzoic acid. When 5-mercapto-2-nitrobenzoic acid is generated, the absorbance at a wavelength of 412 nm is increased, and thus this increase can be measured to determine the amount of SH groups in the reagent.
as §2

Turning to `CC(=O)NN` [acetohydrazine, reference compound], the “activity of G6PDH after heat loading (in words)” value with G6PDH was “the activity of G6PDH was lost”. Moreover, the figures for the G6PDH residual activity in the data set on G6PDH (stabilizer 20 mM in reagent) and with G6PDH (stabilizer 40 mM in reagent) were 84.3% and 87.8%, respectively. In data set [1], the “amount of SH group of NAC after heat loading (in words)” value is “NAC was deteriorated to reduce the amount of SH group”. Besides, the “SH group residual amount” value is on record as 78.4% in data set [1] (stabilizer 20 mM in reagent) and 77.7% in data set [1] (stabilizer 40 mM in reagent).
For the compound `N=C(N)NN` [aminoguanidine], the “activity of G6PDH after heat loading (in words)” value in the data set with G6PDH is “the activity of G6PDH could be maintained”. For the same compound, the G6PDH residual activity in the data set on G6PDH (stabilizer 10 mM in reagent) turned out to be 88.2%; in the data set on G6PDH (stabilizer 20 mM in reagent) it was 92.6%; with G6PDH (stabilizer 40 mM in reagent), 94.8%. Also, the “amount of SH group of NAC after heat loading (in words)” value in data set [1] is given as “without reducing the amount of SH group”. The “SH group residual amount” value in data set [1] (stabilizer 10 mM in reagent) came to 92.2%; in data set [1] (stabilizer 20 mM in reagent), 95.4%; in data set [1] (stabilizer 40 mM in reagent) it was 94.1%.
